In ChEMBL document CHEMBL1240532, “Spiroindolones, a potent compound class for the treatment of malaria” (Science, 2010):
The source made the active and inactive calls. No cut-off for these calls is given here.

Key:
[1] = system: Plasmodium vivax; experiment: Antimalarial activity against Plasmodium vivax isolates after 42 hrs; assay type: functional, organism-based
[2] = system: Plasmodium falciparum; experiment: Antimalarial activity against Plasmodium falciparum 3D7 assessed as parasite growth inhibition at 1.6 nM after24 hrs by [3H]hypoxanthin incorporation assay; assay type: functional
[3] = system: Plasmodium falciparum; experiment: Antimalarial activity against Plasmodium falciparum 3D7 after 48 hrs incubation by [3H]hypoxanthin incorporation assay
[4] = system: Plasmodium falciparum; experiment: Antimalarial activity against Plasmodium falciparum D6 after 48 hrs incubation by [3H]hypoxanthin incorporation assay
[5] = biological target: hERG (KCNH2) (Homo sapiens, UniProt Q12809); experiment: Inhibition of human ERG at 30 uM
[6] = biological target: T1, Voltage-gated inwardly rectifying potassium channel KCNH2 (Homo sapiens, UniProt Q12809); experiment: Inhibition of human ERG
[7] = biological target: T1, Voltage-gated inwardly rectifying potassium channel KCNH2; experiment: Inhibition of human ERG by patch clamp method
[8] = biological target: Beta-1 adrenergic receptor (Homo sapiens, UniProt P08588); experiment: Binding affinity to human recombinant adrenergic beta-1 receptor
[9] = biological target: Beta-2 adrenergic receptor (Homo sapiens, UniProt P07550); experiment: Binding affinity to human recombinant adrenergic beta2 receptor
[10] = biological target: Beta-3 adrenergic receptor (Homo sapiens, UniProt P13945); experiment: Binding affinity to human recombinant adrenergic beta3 receptor
[11] = biological target: Alpha-2B adrenergic receptor (Homo sapiens, UniProt P18089); experiment: Binding affinity to human recombinant alpha2b receptor
[12] = Binding affinity to rat benzodiazepine receptor
[13] = biological target: B2 bradykinin receptor (Homo sapiens, UniProt P30411); experiment: Binding affinity to human recombinant bradykinin B2 receptor
[14] = biological target: Gastrin/cholecystokinin type B receptor (Homo sapiens, UniProt P32239); experiment: Binding affinity to human recombinant cholecystokinin B receptor
[15] = biological target: D(2) dopamine receptor (Homo sapiens, UniProt P14416); experiment: Binding affinity to human recombinant dopamine D2 receptor
[16] = biological target: D(4) dopamine receptor (Homo sapiens, UniProt P21917); experiment: Binding affinity to human recombinant dopamine D4.4 receptor
[17] = biological target: Sodium-dependent dopamine transporter (Homo sapiens, UniProt Q01959); experiment: Binding affinity to human recombinant dopamine transporter
[18] = biological target: Estrogen receptor (Homo sapiens, UniProt P03372); experiment: Binding affinity to human recombinant ERalpha
[19] = biological target: Histamine H1 receptor (Homo sapiens, UniProt P35367); experiment: Binding affinity to human recombinant histamine H1 receptor
[20] = biological target: Histamine H3 receptor (Homo sapiens, UniProt Q9Y5N1); experiment: Binding affinity to human recombinant histamine H3 receptor
[21] = biological target: Neuropeptide Y receptor type 2 (Homo sapiens, UniProt P49146); experiment: Binding affinity to human recombinant neuropeptide Y2 receptor
[22] = biological target: Neurotensin receptor type 1 (Homo sapiens, UniProt P30989); experiment: Binding affinity to human recombinant neurotensin NT1 receptor
[23] = biological target: Glutamate [NMDA] receptor; experiment: Binding affinity to human recombinant NMDA receptor
[24] = biological target: Kappa-type opioid receptor (Homo sapiens, UniProt P41145); experiment: Binding affinity to human recombinant opiate kappa receptor
[25] = biological target: Phosphodiesterase 3 (Homo sapiens, UniProt Q14432+Q13370); experiment: Binding affinity to human recombinant PDE3; assay type: protein assay
[26] = biological target: 3',5'-cyclic-AMP phosphodiesterase 4D (Homo sapiens, UniProt Q08499); experiment: Binding affinity to human recombinant PDE4D
[27] = biological target: Sodium-dependent serotonin transporter (Homo sapiens, UniProt P31645); experiment: Binding affinity to human recombinant serotonin transporter
[28] = system: Plasmodium berghei; experiment: Antimalarial activity against Plasmodium berghei GFP ANKA infected in NMRI mice (Mus musculus) assessed as cure rate at 30 mg/kg, perorally administered as single dose 24 hrs post infection for 1 day measured 30 days post infection; assay type: functional; conditions: route oral
[29] = system: Plasmodium berghei; experiment: Antimalarial activity against Plasmodium berghei GFP ANKA infected in NMRI mice (Mus musculus) assessed as reduction in parasitaemia at 10 mg/kg, perorally administered through 0.5% MCM/0.1%solutol HS15 formulation 24 hrs post infection for 3 days measured 96 hrs post infection; assay type: functional; design: scale not given: the % may be the effect or the level left; conditions: route oral
[30] = system: Plasmodium berghei; experiment: Antimalarial activity against Plasmodium berghei GFP ANKA infected in NMRI mice (Mus musculus) assessed as reduction in parasitaemia at 30 mg/kg, perorally administered through 0.5% MCM/0.1%solutol HS15 formulation 24 hrs post infection for 3 days measured 96 hrs post infection; assay type: functional; design: scale not given: the % may be the effect or the level left; conditions: route oral
[31] = system: Plasmodium berghei; experiment: Antimalarial activity against Plasmodium berghei GFP ANKA infected in NMRI mice (Mus musculus) assessed as survival at 30 mg/kg, perorally administered through 0.5% MCM/0.1%solutol HS15 formulation 24 hrs post infection for 3 days measured 96 hrs post infection; assay type: functional; conditions: route oral
[32] = system: Plasmodium berghei; experiment: Antimalarial activity against Plasmodium berghei GFP ANKA infected in NMRI mice (Mus musculus) assessed as cure rate at 10 mg/kg, perorally administered through 0.5% MCM/0.1%solutol HS15 formulation 24 hrs post infection for 3 days measured on day 30 post infection; assay type: functional; conditions: route oral
[33] = system: Plasmodium berghei; experiment: Antimalarial activity against Plasmodium berghei GFP ANKA infected in NMRI mice (Mus musculus) assessed as cure rate at 30 mg/kg, perorally administered through 0.5% MCM/0.1%solutol HS15 formulation 24 hrs post infection for 3 days measured on day 30 post infection; assay type: functional; conditions: route oral
[34] = system: Plasmodium berghei; experiment: Antimalarial activity against Plasmodium berghei GFP ANKA infected in NMRI mice (Mus musculus) assessed as cure rate at 50 mg/kg, perorally administered through 0.5% MCM/0.1%solutol HS15 formulation 24 hrs post infection for 3 days measured on day 30 post infection; assay type: functional; conditions: route oral
[35] = system: Plasmodium falciparum; experiment: Antimalarial activity against NITD609-resistant Plasmodium falciparum Dd2 Clone2 bearing P-type ATPase4 T418N and P990R mutations after 72 hrs by SYBR green based fluorescence assay; assay type: functional, organism-based; conditions: Dd2, 72 h
[36] = system: Plasmodium falciparum; assay type: functional, organism-based; conditions: Dd2, 72 h, read-out: IC50
[37] = system: Plasmodium falciparum; experiment: Antimalarial activity against Plasmodium falciparum assessed as […] by SYBR green based fluorescence assay; assay type: functional, organism-based; conditions: Plasmodium falciparum
[38] = system: Plasmodium berghei; experiment: Antimalarial activity against Plasmodium berghei GFP ANKA infected in NMRI mice (Mus musculus) assessed as reduction in parasitaemia dosed in ETPGS formulation 1 day post infection measured 72 hrs post infection; assay type: functional
[39] = system: Mus musculus; experiment: Toxicity in Plasmodium berghei GFP ANKA infected NMRI mice (Mus musculus) assessed as reduction in parasitemia dosed in ETPGS formulation 1 day postinfection measured 72 hrs post infection; assay type: organism-based; conditions: in vivo
[40] = in vivo; conditions: CD1, mouse, iv, 5.4 mg/kg
[41] = in vivo; conditions: CD1, mouse, po, 24.6 mg/kg
[42] = system: Plasmodium falciparum; experiment: microbe, parasite or virus in culture; conditions: Dd2, 72 h
[43] = system: Plasmodium falciparum; experiment: microbe, parasite or virus in culture; conditions: Dd2, 72 h; remark: listed apart in the source
[44] = system: Plasmodium falciparum; experiment: microbe, parasite or virus in culture; conditions: Dd2, 72 h; remark: listed apart in the source

T1 sequence (Q12809 whole entry): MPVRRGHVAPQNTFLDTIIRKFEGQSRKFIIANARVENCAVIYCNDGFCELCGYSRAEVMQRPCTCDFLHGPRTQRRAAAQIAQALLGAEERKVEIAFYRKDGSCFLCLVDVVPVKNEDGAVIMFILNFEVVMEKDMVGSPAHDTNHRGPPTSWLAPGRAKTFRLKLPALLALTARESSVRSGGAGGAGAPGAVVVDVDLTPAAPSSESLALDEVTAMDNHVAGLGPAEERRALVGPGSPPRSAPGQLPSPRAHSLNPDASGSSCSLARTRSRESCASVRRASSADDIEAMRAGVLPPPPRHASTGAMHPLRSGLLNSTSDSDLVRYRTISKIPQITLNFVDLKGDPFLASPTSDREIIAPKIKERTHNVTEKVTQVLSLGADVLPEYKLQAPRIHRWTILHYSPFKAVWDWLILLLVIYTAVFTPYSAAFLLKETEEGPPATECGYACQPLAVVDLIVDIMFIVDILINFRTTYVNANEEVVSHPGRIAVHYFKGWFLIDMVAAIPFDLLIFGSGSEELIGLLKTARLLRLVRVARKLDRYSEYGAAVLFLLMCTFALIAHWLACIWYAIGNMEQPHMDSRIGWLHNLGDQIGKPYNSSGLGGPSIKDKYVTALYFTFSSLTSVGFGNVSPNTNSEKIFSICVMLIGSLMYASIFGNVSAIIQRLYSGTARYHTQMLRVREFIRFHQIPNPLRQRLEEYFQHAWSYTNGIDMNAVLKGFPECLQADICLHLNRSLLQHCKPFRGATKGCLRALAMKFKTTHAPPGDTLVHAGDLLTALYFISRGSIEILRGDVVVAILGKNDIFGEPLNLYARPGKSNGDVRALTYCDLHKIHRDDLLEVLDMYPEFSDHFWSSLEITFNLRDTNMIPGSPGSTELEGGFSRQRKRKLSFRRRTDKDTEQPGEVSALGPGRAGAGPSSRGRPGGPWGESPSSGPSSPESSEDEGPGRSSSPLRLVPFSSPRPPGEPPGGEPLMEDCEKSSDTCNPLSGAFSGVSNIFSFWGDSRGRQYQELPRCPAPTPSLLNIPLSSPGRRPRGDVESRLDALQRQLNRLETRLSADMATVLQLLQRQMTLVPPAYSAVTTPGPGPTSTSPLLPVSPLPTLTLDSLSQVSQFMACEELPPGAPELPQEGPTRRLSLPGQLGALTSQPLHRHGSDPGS
Sodium-dependent dopamine transporter, sequence (Q01959 whole entry): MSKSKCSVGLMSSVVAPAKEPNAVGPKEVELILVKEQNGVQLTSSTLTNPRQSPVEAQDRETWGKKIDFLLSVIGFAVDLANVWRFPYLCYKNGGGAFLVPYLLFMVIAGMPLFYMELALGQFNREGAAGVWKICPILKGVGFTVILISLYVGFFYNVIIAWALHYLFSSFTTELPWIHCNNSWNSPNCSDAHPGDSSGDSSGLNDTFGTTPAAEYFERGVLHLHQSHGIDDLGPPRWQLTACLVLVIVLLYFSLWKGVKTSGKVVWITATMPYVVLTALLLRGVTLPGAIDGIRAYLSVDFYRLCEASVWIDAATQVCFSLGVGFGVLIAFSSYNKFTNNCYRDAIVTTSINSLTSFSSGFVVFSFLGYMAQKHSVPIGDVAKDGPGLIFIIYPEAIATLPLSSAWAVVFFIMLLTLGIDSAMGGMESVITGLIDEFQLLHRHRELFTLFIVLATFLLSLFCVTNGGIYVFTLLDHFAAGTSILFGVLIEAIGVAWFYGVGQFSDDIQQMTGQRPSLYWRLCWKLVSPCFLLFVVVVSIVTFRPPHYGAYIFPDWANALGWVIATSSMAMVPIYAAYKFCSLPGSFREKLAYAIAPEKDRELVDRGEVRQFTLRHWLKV
Neurotensin receptor type 1, sequence (P30989 whole entry): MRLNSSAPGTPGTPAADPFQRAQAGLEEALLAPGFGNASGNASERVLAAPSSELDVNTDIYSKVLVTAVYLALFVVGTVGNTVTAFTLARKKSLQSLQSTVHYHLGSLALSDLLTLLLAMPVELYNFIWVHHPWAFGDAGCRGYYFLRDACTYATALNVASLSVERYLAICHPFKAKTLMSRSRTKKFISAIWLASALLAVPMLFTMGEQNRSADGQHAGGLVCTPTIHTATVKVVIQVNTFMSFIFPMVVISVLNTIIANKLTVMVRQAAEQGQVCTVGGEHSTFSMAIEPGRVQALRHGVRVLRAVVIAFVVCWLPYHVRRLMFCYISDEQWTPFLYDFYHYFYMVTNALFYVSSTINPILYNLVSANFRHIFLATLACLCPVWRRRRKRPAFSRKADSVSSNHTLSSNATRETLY
Kappa-type opioid receptor, sequence (P41145 whole entry): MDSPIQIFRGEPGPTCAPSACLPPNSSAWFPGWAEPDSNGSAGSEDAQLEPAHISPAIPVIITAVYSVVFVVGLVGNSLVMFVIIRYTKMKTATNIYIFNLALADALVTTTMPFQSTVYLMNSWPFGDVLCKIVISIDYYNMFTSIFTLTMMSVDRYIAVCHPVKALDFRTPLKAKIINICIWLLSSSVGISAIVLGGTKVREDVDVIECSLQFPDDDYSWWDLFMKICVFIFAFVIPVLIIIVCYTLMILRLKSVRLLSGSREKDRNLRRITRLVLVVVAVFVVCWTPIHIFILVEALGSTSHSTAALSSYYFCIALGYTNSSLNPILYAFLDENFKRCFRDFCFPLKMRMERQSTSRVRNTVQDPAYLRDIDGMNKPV
D(4) dopamine receptor, sequence (P21917 whole entry): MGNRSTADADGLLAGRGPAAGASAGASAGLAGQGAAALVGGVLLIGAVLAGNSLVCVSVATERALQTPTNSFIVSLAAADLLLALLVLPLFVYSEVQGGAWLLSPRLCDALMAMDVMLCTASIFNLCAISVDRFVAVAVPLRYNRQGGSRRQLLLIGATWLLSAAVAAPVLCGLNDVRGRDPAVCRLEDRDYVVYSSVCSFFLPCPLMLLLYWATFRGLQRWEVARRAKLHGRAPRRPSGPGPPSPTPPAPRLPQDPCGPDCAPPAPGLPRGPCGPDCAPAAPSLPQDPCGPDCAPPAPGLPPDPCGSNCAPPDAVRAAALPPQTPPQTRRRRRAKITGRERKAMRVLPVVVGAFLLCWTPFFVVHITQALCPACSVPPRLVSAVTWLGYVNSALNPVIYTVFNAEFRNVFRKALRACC
Histamine H3 receptor, sequence (Q9Y5N1 whole entry): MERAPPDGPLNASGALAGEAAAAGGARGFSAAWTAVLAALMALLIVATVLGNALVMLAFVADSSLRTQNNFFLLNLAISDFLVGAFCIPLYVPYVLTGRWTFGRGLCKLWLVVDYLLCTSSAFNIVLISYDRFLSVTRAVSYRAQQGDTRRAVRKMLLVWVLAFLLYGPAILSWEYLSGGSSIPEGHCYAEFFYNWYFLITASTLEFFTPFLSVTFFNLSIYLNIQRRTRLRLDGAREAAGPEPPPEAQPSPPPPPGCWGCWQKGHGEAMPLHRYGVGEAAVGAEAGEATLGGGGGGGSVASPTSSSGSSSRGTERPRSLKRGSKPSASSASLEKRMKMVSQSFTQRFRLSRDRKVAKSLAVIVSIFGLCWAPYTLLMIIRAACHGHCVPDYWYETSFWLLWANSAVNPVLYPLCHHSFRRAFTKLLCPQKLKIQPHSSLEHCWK
Beta-1 adrenergic receptor, sequence (P08588 whole entry): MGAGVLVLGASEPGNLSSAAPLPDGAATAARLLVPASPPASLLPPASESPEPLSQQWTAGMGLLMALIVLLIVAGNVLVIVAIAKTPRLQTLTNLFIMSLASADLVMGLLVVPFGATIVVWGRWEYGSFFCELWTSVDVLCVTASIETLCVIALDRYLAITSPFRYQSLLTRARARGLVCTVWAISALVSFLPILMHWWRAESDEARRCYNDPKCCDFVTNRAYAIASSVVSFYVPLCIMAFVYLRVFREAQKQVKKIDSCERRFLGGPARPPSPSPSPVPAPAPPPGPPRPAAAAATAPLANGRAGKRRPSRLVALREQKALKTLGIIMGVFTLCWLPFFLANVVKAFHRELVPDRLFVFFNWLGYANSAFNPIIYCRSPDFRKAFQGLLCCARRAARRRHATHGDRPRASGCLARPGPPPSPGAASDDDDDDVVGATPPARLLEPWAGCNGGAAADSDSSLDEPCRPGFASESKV
Beta-2 adrenergic receptor, sequence (P07550 whole entry): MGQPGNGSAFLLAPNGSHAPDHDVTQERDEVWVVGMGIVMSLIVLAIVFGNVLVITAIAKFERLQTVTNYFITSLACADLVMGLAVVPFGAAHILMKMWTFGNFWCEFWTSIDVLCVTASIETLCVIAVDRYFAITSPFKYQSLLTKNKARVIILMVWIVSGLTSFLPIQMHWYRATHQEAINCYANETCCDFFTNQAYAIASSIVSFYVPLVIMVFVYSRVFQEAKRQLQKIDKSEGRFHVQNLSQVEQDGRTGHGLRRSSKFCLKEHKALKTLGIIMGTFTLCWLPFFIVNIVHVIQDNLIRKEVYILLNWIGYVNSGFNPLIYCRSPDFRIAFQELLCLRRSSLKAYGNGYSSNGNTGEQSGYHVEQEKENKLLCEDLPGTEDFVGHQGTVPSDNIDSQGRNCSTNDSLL
Neuropeptide Y receptor type 2, sequence (P49146 whole entry): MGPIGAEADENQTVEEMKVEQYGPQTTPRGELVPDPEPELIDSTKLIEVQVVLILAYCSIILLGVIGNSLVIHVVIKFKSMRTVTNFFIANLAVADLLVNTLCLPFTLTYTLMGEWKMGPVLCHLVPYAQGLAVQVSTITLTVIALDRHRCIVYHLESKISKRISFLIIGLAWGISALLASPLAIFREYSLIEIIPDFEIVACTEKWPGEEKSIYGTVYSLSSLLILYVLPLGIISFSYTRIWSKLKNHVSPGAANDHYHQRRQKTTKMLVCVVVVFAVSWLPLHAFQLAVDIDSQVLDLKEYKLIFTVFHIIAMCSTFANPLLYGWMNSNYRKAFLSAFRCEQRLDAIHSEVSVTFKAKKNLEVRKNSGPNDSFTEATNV

C[C@H]1Cc2c([nH]c3cc(Cl)c(F)cc23)[C@@]2(N1)C(=O)Nc1ccc(Cl)cc12 [CIPARGAMIN]
inhibition [1]: Active | inhibition at 0.0016 µM [2]: > 90% | IC50 [3]: 0.0007 µM | IC50 [4]: 0.001 µM | inhibition at 30 µM [5]: 52% | IC50 [6]: 30.4 µM | IC50 [7]: > 30 µM | IC50 [8]: > 10 µM | IC50 [9]: > 10 µM | IC50 [10]: > 30 µM | IC50 [11]: > 10 µM | IC50 [12]: > 10 µM | IC50 [13]: > 30 µM | IC50 [14]: > 30 µM | IC50 [15]: > 10 µM | IC50 [16]: > 10 µM | IC50 [17]: > 10 µM | IC50 [18]: > 30 µM | IC50 [19]: > 10 µM | IC50 [20]: > 10 µM | IC50 [21]: > 10 µM | IC50 [22]: > 10 µM | IC50 [23]: > 10 µM | IC50 [24]: > 10 µM | IC50 [25]: > 10 µM | IC50 [26]: > 10 µM | IC50 [27]: > 10 µM | Activity [28]: 50% | Activity [29]: […] | Activity [30]: 99.8% | Survival [31]: 29.1 days | Activity [32]: 50% | Activity [33]: 90% | Activity [34]: 100% | IC50 [35]: 0.0037 µM | IC50 [36]: 0.0032 µM | IC50 [37]: 0.0005 µM | ED50 [38]: 1.2 mg/kg | ED99 [38]: 5.3 mg/kg | Activity [39]: Non-toxic | half-life [40]: 3.44 h | half-life [41]: 10 h | IC50 [42]: 0.00189 µM | IC50 [43]: 0.0039 µM | IC50 [44]: 0.00425 µM
